Source: patent US20100115666A1, “Transcriptional Repressors of Cytokinin Signaling and Their Use” (FREIE UNIVERSITÄT BERLIN, priority 2006, published 2010)

Tests used:
[1] = test system: detached leaves; test: Chlorophyll retention assay in detached leaves; assay type: in vivo, Arabidopsis thaliana; details: wild type leaves, 0.1 μM BA, 10 d dark
Method: (b) Quantification of chlorophyll retention by cytokinin. […] Three independent plates with five leaves per plate were examined for each concentration. Two chlorophyll measurements were taken per plate. The chlorophyll content was determined spectrophotometrically as described in Example 3.5. Error bars represent SD (n=15). The chlorophyll retention assay was performed as described by ([…] et al., 2006). Either the sixth or the seventh leaf was detached from 24-days-old in vitro grown seedlings and floated on distilled water supplemented with 0, 0.01, 0.1, 0.5, 1.0 or 5.0 μM BA in 0.1% DMSO in small Petri dishes for 10 d at RT in the dark. Three replicates of each genotype, each consisting of five leaves were taken for measurement. Chlorophyll was extracted with methanol for 24 h in the dark. The amount of chlorophyll was measured with a spectrophotometer, normalized to fresh weight, and the chlorophyll content was calculated as described (Porra et al., 1989).

[2] = test system: Arabidopsis seedlings; test: Cytokinin sensitivity of roots (root elongation, lateral root formation); assay type: in vivo, Arabidopsis thaliana
Method: ([…] plants are less sensitive to cytokinin inhibition of root elongation. Root elongation was measured for each line between 4 and 9 DAG. The root elongation of each line is expressed as percentage of its DMSO control. Results shown for each line represent means from at least three independent replicates. ([…] plants are less sensitive to cytokinin inhibition of lateral root formation. The number of lateral roots was determined 9 DAG. Error bars represent SD (n>15). Arabidopsis seeds were grown on vertical plates containing different concentration of BA ranging from 0.01 μM to 1.0 mM. 0.1% dimethyl sulfoxide (DMSO) was included as vehicle control. The primary root lengths were marked on day four and nine after germination. Photographs were taken with a digital camera (Nikon Coolpix 8800) and root lengths were determined using Scion Image program version beta 4.02 (www.scioncorp.com). The number of lateral roots emerging from the epidermis of the primary root was counted under a microscope […]. The experiments were performed using three independent replicates and 15 seedlings in each replicate. To investigate the cytokinin response in roots, seedlings of wild type and the 35[…] lines were grown on media containing increasing amounts of cytokinin. […] The relative difference in root length increased with increasing cytokinin concentrations (FIG. 7a). […]

[3] = test system: ARR6:GUS reporter gene; test: Protoplast transactivation assay (ARR6:GUS reporter); assay type: cell-based, Arabidopsis
Method: The ARR6:GUS reporter construct and a 35S:GUS construct without any effector plasmid were used as controls. Protoplasts were co-transfected with the ARR6:GUS reporter and an effector plasmid expressing ARR1, ARR1-SRDX or both effector plasmids simultaneously. […] Variations in transformation efficiencies were normalized by using a 35S:NAN reporter gene construct. The mean values and SD of four independent transfection assays were calculated and shown as relative GUS/NAN activity units.
Protoplast isolation and transformation was carried out according to the method described by Hwang and Sheen (Hwang and Sheen, 2001). For isolation of mesophyll protoplasts 4-5 weeks old rosette leaves were used. Transformation of protoplasts was mediated by 40% PEG solution. […] For the transactivation assays, 9 μg of the ARR6: GUS reporter plasmid and 14 μg of each effector plasmid carrying 35S:ARR1 and 35S:ARR1-SRDX were used. For normalization 3 μg of a plasmid harboring the 35S:NAN gene (Kirby and Kavanagh, 2002) was added. Both GUS and NAN enzyme assays were performed according to Kirbay and Kavanagh (Kirby and Kavanagh, 2002). The ratios of GUS and NAN activities were calculated as relative GUS/NAN activity units.

What does the source list for `c1ccc(CNc2ncnc3[nH]cnc23)cc1` [BA]?
chlorophyll retention [1]: strongly increased chlorophyll retention; root length reduction compared to control ([2]; wild type plants, 1 μM BA): 75%; lateral root formation ([2]; wild type, 0.1 μM BA): unable to produce lateral roots

What does the source list for `C/C(=C\CNc1ncnc2nc[nH]c12)CO` [cytokinin, trans-zeatin]?
induction of the reporter gene expression compared to the non-induced condition ([3]; ARR6:GUS reporter without effector, 500 nM trans-zeatin, 16 h): more than threefold induction; further increase of the GUS activity on addition of cytokinin ([3]; with 35S:ARR1 effector, 500 nM trans-zeatin): twofold increase

B1: ARR1: Arabidopsis thaliana B-type response regulator ARR1 (SEQ ID NO: 12), expressed under the 35S promoter (protein, listed as Arabidopsis thaliana)
chain: MMNPSHGRGLGSAGGSSSGRNQGGGGETVVEMFPSGLRVLVVDDDPTCLMILERMLRTCLYEVTKCNRAEMALSLLRKNKHGFDIVISDVHMPDMDGFKLLEHVGLEMDLPVIMMSADDSKSVVLKGVTHGAVDYLIKPVRMEALKNIWQHVVRKRRSEWSVPEHSGSIEETGERQQQQHRGGGGGAAVSGGEDAVDDNSSSVNEGNNWRSSSRKRKDEEGEEQGDDKDEDASNLKKPRVVWSVELHQQFVAAVNQLGVEKAVPKKILELMNVPGLTRENVASHLQKYRIYLRRLGGVSQHQGNLNNSFMTGQDASFGPLSTLNGFDLQALAVTGQLPAQSLAQLQAAGLGRPAMVSKSGLPVSSIVDERSIFSFDNTKTRFGEGLGHHGQQPQQQPQMNLLHGVPTGLQQQLPMGNRMSIQQQIAAVRAGNSVQNNGMLMPLAGQQSLPRGPPPMLTSSQSSIRQPMLSNRISERSGFSGRNNIPESSRVLPTSYTNLTTQHSSSSMPYNNFQPELPVNSFPLASAPGISVPVRKATSYQEEVNSSEAGFTTPSYDMFTTRQNDWDLRNIGIAFDSHQDSESAAFSASEAYSSSSMSRHNTTVAATEHGRNHQQPPSGMVQHHQVYADGNGGSVRVKSERVATDTATMAFHEQYSNQEDLMSALLKQV
B1 was tested. Which GUS activity ([3]; co-transfection with ARR1 under 35S promoter, absence of cytokinin) did it give?
Its GUS activity is “strong increase in GUS activity”.
